Data as given in patent US5422372A, “Method of increasing intracellular accumulation of hydrophilic anionic agents using gemfibrizol” (priority 1993, dated 1995).
≈ marks a conversion by molar mass, not a printed value. Entries after “also recorded” stand apart in the source; their conditions may differ. Where two headings read alike, the source gives them in different places.

Experiments:
[1] = system: organic anion transporters of J774 cells; details: cited from earlier work; for effect on intracellular sequestration and secretion of Lucifer Yellow: macrophages and J774 cells
[2] = system: organic anion transporters of J774 cells; type: cell-based, mouse
[3] = system: organic anion transporters of J774 cells; test: Lucifer Yellow secretion (efflux) from J774 cells; type: cell-based, mouse
Experimental: Cells were incubated in D10 containing 0.5 mg/ml Lucifer Yellow and 5 mM ATP with or without 10 mM penicillin G. The cells were then washed and incubated in fresh medium at 37° C. At intervals, the cells were viewed by fluorescence microscopy.

[4] = system: organic anion transporters of J774 cells; test: Intracellular Lucifer Yellow accumulation during ATP permeabilization of J774 cells; type: cell-based, mouse; details: for effect on intracellular accumulation of Lucifer Yellow during ATP permeabilization: added together with 0.5 mg/ml Lucifer Yellow and 5 mM ATP
Experimental: The cells were incubated in phosphate buffered saline with divalent cations (PBS) containing 0.5 mg/ml Lucifer Yellow, 5 mM ATP and other compounds, at 37° C. as indicated in the text. The wells were washed with cold phosphate buffered saline without divalent cations (PD) 3 times, and plates were immersed successively in three beakers containing 1,000 ml cold PD. The first beaker also contained 0.1% bovine serum albumin. The cells then were lysed in 0.05% Triton X-100, and fluorescence was measured in a fluorescence spectrophotometer using an excitation wavelength of 430 nm and an emission wavelength 540 nm. Total cell protein was measured by a modification of the Lowery method. (6) Results were expressed as ng Lucifer Yellow/mg protein.
An assay to identify competitive inhibitors of the organic anion transporters that mediate the secretion of Lucifer Yellow was developed. It was reasoned that any substrate of the organic anion transporter small enough to enter the cells through ATP-induced pores, when added together with Lucifer Yellow during ATP permeabilization, would compete with Lucifer Yellow for efflux and cause higher intracellular accumulation of Lucifer Yellow. This assay was used to determine whether various substrates for other organic anion transporters competed with Lucifer Yellow for secretion by J774 cells.

[5] = system: organic anion transporters of J774 cells
J774 cells = test: Uptake of [14C] penicillin G by adherent J774 cells from extracellular medium; type: cell-based, mouse; details: even in the presence of 10 mM probenecid
Experimental: It was then questioned whether penicillin G was taken up by J774 cells from the extracellular medium, and whether this uptake was affected by organic anion transporters. In these experiments, adherent J774 cells were incubated in medium containing [^14 C] penicillin G, the cells were washed, and intracellular radiolabel was measured.

[6] = system: organic anion transporters of J774 cells; type: cell-based, mouse; details: for intracellular accumulation of radiolabel from [3H] norfloxacin: J774 cells incubated with [3H] norfloxacin and the inhibitor
Experimental: [^3 H]-Norfloxacin Retention in J774 Cells: J774 cells were prepared as above. The cells were incubated in PBS with 1.5 μCi/ml [^3 H] norfloxacin in the presence or absence of 10 mM probenecid for various lengths of time, washed and lysed. Cell-associated radioactivity and protein were quantitated as above.

Toxicity to J774 cells = type: cell-based; details: mouse, read-out: concentrations toxic to the cells
L. monocytogenes [7] = test: Extracellular growth assay: minimum inhibitory concentration (MIC); type: cell-based; details: Listeria monocytogenes; brain-heart infusion broth; read-out: NFX concentration that blocked growth of LM (MIC)
Experimental: L. monocytogenes were inoculated into 1 ml of BHI broth and grown overnight in BHI broth to a density of approximately 10^9 bacteria per ml, diluted to a concentration of 2×10^3 bacteria per ml in Brain Heart Infusion Broth, and 0.5 ml aliquots of this suspension were placed in separate tubes. Norfloxacin (NFX) at the indicated concentrations in 0.5 ml BHI broth was added to the tubes containing L. monocytogenes, and the bacteria were incubated overnight at 25° C., 30° C. and 35° C. The MIC of NFX for L. monocytogenes was determined by visual inspection (tubes without antibiotic, in which the bacteria grew contained a cloudy suspension).

L. monocytogenes [8] = test: Extracellular growth assay: minimum bacteriocidal concentration (MBC); type: cell-based; details: Listeria monocytogenes; brain-heart infusion broth; read-out: NFX concentration bacteriocidal for LM (MBC)
Experimental: 10 μl of the contents of each sample from the MIC assay described above was plated on 10 cm plates containing 20 ml. LB, agar, and the plates were incubated overnight at 25° C., 30° C. and 35° C. The number of colonies were counted.

[9] = system: Listeria monocytogenes in J774 cells; test: Intracellular growth of Listeria monocytogenes in J774 cells; type: cell-based
Experimental: J774 cells grown in spinner culture were centrifuged for 5 min. at 1000 RPM. The cells were resuspended in fresh DME+5% HICS without antibiotics at a concentration of 2×10^5. 5 ml of this cell suspension was plated into each 60 mm Petri dish containing multiple 12×1 mm round coverslips (Fisher Scientific Co.) the evening before use to allow the cells to form monolayers on the coverslips. The cells were incubated overnight at 37° C.
L. monocytogenes was incubated overnight in BHI broth to a density of approximately 10^9 /ml in a shaker at 37° C. 1 ml of the bacterial suspension was sedimented in a microfuge tube (USA/Scientific Plastics, Ocala, Fla.) for 1 min at 8000 RPM. The supernatant was removed and the pellet was washed once in 1 ml of PBS at pH 7.4. The bacteria were then resuspended in 1 ml fresh DME+5% HICS, diluted in DME+5% HICS to a concentration of 2×10^5 bacteria per ml, and 5 ml of this suspension (10^6 bacteria total) was placed in each 60 mm dish containing a monolayer of J774 cells (infection ratio 1:1). The dishes were incubated at 35° C. for 60 minutes. The coverslip was then transferred to a new 60 mm petri dish containing 10 ml of pre warmed DME+5% HICS and 5 μg/ml of gentamicin. The cells were incubated in the gentamicin containing medium for 1 hr. at 35° C. to kill extracellular bacteria, as described by Portnoy et al. (9), at which time additional drugs were added as indicated below. One 60 mm dish received no addition (control). Other 60 mm dishes received Gemfibrozil (GFZ) (0.2 mM), and/or Norfloxacin (NFX) at 2, 4 or 8 μg per ml, as indicated. Drugs were added either separately or in combination to make four independent sets: No addition, GFZ alone, NFX alone, or GFZ+NFX. The cultures were further incubated at 35° C. Three coverslips containing the Listeria-infected J774 cells were harvested from each culture dish at 2 hours after infection and at 2 hour intervals thereafter. The number of bacteria in the J774 cells on each cover slip was determined by depositing each coverslip into 5 ml of sterile distilled water in a 15 ml Falcon tube. The tubes were vortexed for 15 sec. to lyse the infected cells and 10 or 50 μL of each Listeria-containing solution was plated onto 10 cm dishes containing LB agar. The LB agar plates were incubated at 37° C. overnight, the bacterial colonies were counted, and the number of bacteria per cover slip was calculated from the number of colonies on the agar. Every data point represents the average of the number of bacterial colonies recovered from three coverslips.

With `NNC(=O)NN1C(=O)c2cc(S(=O)(=O)O)cc3c(N)c(S(=O)(=O)O)cc(c23)C1=O` [Lucifer Yellow] as the molecule, how does the “dye secreted by the cells into the medium” value ([1]; within 30 minutes after ATP-mediated permeabilization) read?
Its value is 80-85%.

Which “accumulation of [3H] norfloxacin in preloaded cells” value ([2]; preloaded with 10 mM by ATP-permeabilization, compared with 10 mM gluconic acid preload) does the source give for `CC1(C)S[C@@H]2[C@H](NC(=O)Cc3ccccc3)C(=O)N2[C@H]1C(=O)O` [penicillin G] here?
Its value is “significant increase”.

And the “rate of Lucifer Yellow efflux after co-loading by ATP permeabilization” value ([3]; 10 mM penicillin G, fluorescence microscopy)?
The value was “reduced the rate of Lucifer Yellow afflux”.

What about the “effect on intracellular accumulation of Lucifer Yellow during ATP permeabilization” value (“effect on intracellular accumulation” for short) [4] of the same molecule?
The value was “increase Lucifer Yellow retention in a dose-dependent manner”.

And the “penicillin originally inside the cells secreted into the medium” value [5]?
Its value is “about 80%”.

And the “intracellular radiolabel after incubation with [14C] penicillin G without ATP permeabilization” value (J774 cells)?
The value was “could not be readily detected”.

For `O=C(O)[C@H](O)[C@@H](O)[C@H](O)[C@H](O)CO` [Gluconic acid], which “effect on intracellular norfloxacin concentration” value ([2]; 10 mM gluconic acid compared with norfloxacin only in PBS) is on record?
The value was “did not affect”.

And the “effect on intracellular accumulation” value [4]?
The value was “had no effect”.

With `NC(=O)c1cnccn1` [pyrazinamide] as the molecule, how does the “effect on intracellular accumulation” value [4] read?
Its value is “had no effect”.

With `O=C1C(CC[S+]([O-])c2ccccc2)C(=O)N(c2ccccc2)N1c1ccccc1` (centres unmarked) [sulfinpyrazone] as the molecule, how does the “ED50 for enhancing intracellular retention of norfloxacin (in words)” value ([2]; 30 minutes, J774 cells) read?
Its value is “essentially the same as that for probenecid”.

And the “effect on intracellular sequestration and secretion of Lucifer Yellow” value [1]?
The value was “inhibit both intracellular sequestration and secretion of Lucifer Yellow”.

What about the “concentrations that block secretion of Lucifer Yellow, penicillin and Norfloxacin” value [3] of the same molecule?
The value was 2 to 5 mM.

And the “intracellular accumulation of radiolabel from [3H] norfloxacin” value [6]?
The value was “marked increase”.

What about the MCC (Toxicity to J774 cells) of the same molecule?
Its MCC is over 2.5 mM.

Which results are given for `CCCN(CCC)S(=O)(=O)c1ccc(C(=O)O)cc1` [probenecid, Probenecid]?
reversibility of the effect on norfloxacin retention ([2]; 10 mM probenecid 30 minutes, then washed): reversible; EC50 ([2]; 30 minutes, J774 cells, read-out: ED50 for enhancing intracellular retention of norfloxacin): 500 µM; [3H] norfloxacin remaining in cells after probenecid removal relative to cells never incubated in probenecid ([2]; steady state after removal of 10 mM probenecid): twice; effect on intracellular sequestration and secretion of Lucifer Yellow [1]: inhibit both intracellular sequestration and secretion of Lucifer Yellow; concentrations that block secretion of Lucifer Yellow, penicillin and Norfloxacin [3]: 2 to 5 mM; intracellular accumulation of radiolabel from [3H] norfloxacin [6]: marked increase; time at which intracellular norfloxacin concentration reached plateau ([6]; in the presence of 10 mM probenecid): 30 min; enhancement of intracellular accumulation of norfloxacin ([6]; j774 cells, 10000 µM): 3-4 fold; increase of intracellular retention of Lucifer Yellow ([4]; 5-10 mM probenecid in medium with Lucifer Yellow and ATP): 2.5 fold; intracellular penicillin secreted from the cells ([5]; after 30 minutes, in the presence of 10 mM probenecid): 37%

With `CCn1cc(C(=O)O)c(=O)c2cc(F)c(N3CCNCC3)cc21` [NFX, Norfloxacin] as the molecule, how does the MIC (L. monocytogenes [7]) read?
The MIC was 4 µg/mL (≈ 12.5 µM).

And the MBC (L. monocytogenes [8])?
Its MBC is 8 µg/mL (≈ 25.1 µM).

And the “time at which intracellular norfloxacin concentration reached plateau” value [6]?
The value was at most 10 min.

What about the “intracellular growth of LM in J774 cells” value ([9]; 2 μg/ml NFX alone) of the same molecule?
The value was “little inhibitory effect; also recorded: slowed intracellular growth”.

What about the “intracellular growth of LM in J774 cells” value ([9]; 4 μg/ml NFX alone) of the same molecule?
The value was “marked inhibition of intracellular growth; also recorded: bacteriostatic”.

And the “intracellular growth of LM in J774 cells” value ([9]; 8 μg/ml NFX alone)?
The value was “bacteriostatic effect”.

Which results are given for `Cc1ccc(C)c(OCCCC(C)(C)C(=O)O)c1` [GFZ, 5-(2,5-dimethylphenoxy)-2,2-dimethylpentanoic acid]?
enhancement of intracellular accumulation of NFX ([2]; 0.2 mM GFZ): four-fold; EC50 ([2]; J774 cells, read-out: ED50 for enhancing intracellular accumulation of [3H]NFX): 15 µM; ED50 lower than the ED50 of PB or sulfinpyrazone ([2]; [3H]NFX accumulation by J774 cells): 30 fold; concentration inhibiting Lucifer Yellow secretion relative to PB [3]: ten-fold lower concentration than PB; intracellular growth of LM in J774 cells ([9]; 0.2 mM GFZ alone): has no effect on the rate or extent of growth; also recorded: does not inhibit growth
